Consider two compounds from patent publication US20250352521A1, “FIXED DOSAGE ANTIBIOTIC COMPOSITIONS” (Entasis Therapeutics Limited, priority 2021, published 2025).

The subject of one data set is Enterobacteriaceae. The following applies: in vitro; cited from earlier work.
The test system of data set [1] is A. baumannii complex (ABC) isolates. The following applies: cited from earlier work.
In data set [2] the test system is class A, C, and D β-lactamases. To be noted: cited from earlier work.
Data set [3] can be described thus: Bulk and tapped density analyses according to USP, with calculated compressibility index and Hausner ratio. The format is physicochemical. The method, then:
Bulk and tapped density analyses of DUR sodium salt were performed according to USP and the compressibility index (CI) and Hausner ratio was calculated. Typically, a material is considered to have poor flowability if the Hausner ratio is greater than 1.25 and/or if the CI is greater than 25. See e.g., Leroy A. Sherrington, Amal Sherrington, in Analytical Profiles of Drug Substances and Excipients, 1998. […] These experimental values are consistent with the observed powder adhesion.
It has now been found, however, that co-lyophilizing durlobactam sodium salt and sulbactam sodium salt improved flow properties compared to lyophilized durlobactam sodium alone. Initial experiments involved dissolving a 1:1 w/w mixture of durlobactam sodium salt and sulbactam sodium salt in water-for-injection and optimizing the bulk lyophilization conditions (per scale).

Data set [4] is described as follows: Dry powder filling / machinability trials: powder adhesion to filling equipment. The format is physicochemical. To be noted: machine filling of glass vials. From the text:
Initial attempts to formulate a fixed dosage comprised dry powder filling both DUR sodium salt and SUL sodium salt in glass vials. […] The drawback leads to unreliable and inconsistent product dosing. […] See e.g., the Exemplification section below.
Attempts to develop a commercially feasible fixed-dose combination of durlobactam and sulbactam by dry powder filling both DUR sodium salt and SUL sodium salt (as a 1:1 w/w mixture of each salt form) in glass vials were not successful because of the highly hygroscopic, poor flow properties of DUR sodium salt. […] See e.g., FIG. 1, showing the DUR sodium salt powder residue from the centralized suction and on the feeding chute observed during machinability trials. See also FIG. 2 which depicts the appearance of the DUR sodium salt powder filled product.

Setting [5] is: calculated from bulk and tapped density.

Bounds are passed on as bounds.

For the compound `CC1=C[C@@H]2CN(C(=O)N2OS(=O)(=O)O)[C@@H]1C(N)=O` [Durlobactam], the Intrinsic antibacterial activity entry in the data set with Enterobacteriaceae is reported as “intrinsic antibacterial activity against some Enterobacteriaceae”. Moreover, the “Restoration of in vitro activity of sulbactam” value in data set [1] (in combination with sulbactam) was “restores the in vitro activity of sulbactam”. Also, the Intrinsic activity entry in data set [1] (in vitro, durlobactam alone) is “no significant intrinsic activity”. Further, the “Inhibition of β-lactamases” value in data set [2] is listed as “potent inhibition”.

As for `CC1=C[C@@H]2CN(C(=O)N2OS(=O)(=O)[O-])[C@@H]1C(N)=O.[Na+]` [DUR-Na salt, Durlobactam], in data set [3], the Bulk density is 0.38 g/mL; the “Flowability as indicated by Hausner ratio and CI” value is listed as “extremely poor flowing material”; the Tapped density is 0.61 g/mL. In addition, in data set [3] (setting [5]), the “CI (compressibility index)” value is given as 38% and the Hausner ratio is listed as 1.6. In addition, the Hausner ratio in data set [3] (calculated from bulk and tapped density, listed as DUR sodium salt) is on record as over 1.6. In addition, the “Powder adhesion to the parts of the filling equipment” value in data set [4] is reported as “significant powder adhesion”.
